Source: ChEMBL document CHEMBL4665687, “Isolation of 2-Alkyl-4-quinolones with Unusual Side Chains from a Chinese Pseudomonas aeruginosa Isolate” (J Nat Prod, 2020)
Calls of active or inactive are those of the source. No cut-off for these calls is given here.

Columns and labels:
[1] = system: HeLa; assay: Cytotoxicity against human HeLa cells assessed as reduction in cell viability; assay type: functional, cell-based
[2] = system: Staphylococcus aureus; assay: Antibacterial activity against Staphylococcus aureus; assay type: functional, organism-based
[3] = system: Staphylococcus epidermidis; assay: Antibacterial activity against Staphylococcus epidermidis; assay type: functional, organism-based

CCCCCC/C=C\CCCc1cc(=O)c2ccccc2n1O
Activity [1]: inactive
Activity [2]: Active
Activity [3]: Active

CCCCCCCCCc1cc(=O)c2ccccc2[nH]1
Activity [1]: inactive
Activity [2]: Active
Activity [3]: Active

CCCCCC/C=C/Cc1cc(=O)c2ccccc2[nH]1
Activity [1]: inactive
Activity [2]: Active
Activity [3]: Active

CCCC/C=C/CCCc1cc(=O)c2ccccc2[nH]1
Activity [1]: inactive
Activity [2]: Active
Activity [3]: Active

CS/C=C/c1cc(=O)c2ccccc2[nH]1
Activity [1]: inactive
Activity [2]: Active
Activity [3]: Active

CCCCCCCCc1cc(=O)c2ccccc2[nH]1
Activity [1]: inactive
Activity [2]: Active
Activity [3]: Active

CCCCCCCCC/C=C/c1cc(=O)c2ccccc2[nH]1
Activity [1]: inactive
Activity [2]: Active
Activity [3]: Active

CCCCCCCc1cc(O)c2ccccc2[n+]1[O-]
Activity [1]: inactive
Activity [2]: Active
Activity [3]: Active

CC/C(C)=C/Cc1cc(=O)c2ccccc2[nH]1
Activity [1]: inactive
Activity [2]: Active
Activity [3]: Active

CCCCCCCc1cc(=O)c2ccccc2[nH]1
Activity [1]: inactive
Activity [2]: Active
Activity [3]: Active

CCCCC/C=C/c1cc(=O)c2ccccc2[nH]1
Activity [1]: inactive
Activity [2]: Active
Activity [3]: Active

CC(C)CCCCc1cc(=O)c2ccccc2[nH]1
Activity [1]: inactive
Activity [2]: Active
Activity [3]: Active

CCCCCCC/C=C/c1cc(=O)c2ccccc2[nH]1
Activity [1]: inactive
Activity [2]: Active
Activity [3]: Active

CCCCCC/C=C\CCCc1cc(=O)c2ccccc2[nH]1
Activity [1]: inactive
Activity [2]: Active
Activity [3]: Active

O=c1cc(Cc2ccccc2)[nH]c2ccccc12
Activity [1]: inactive
Activity [2]: Active
Activity [3]: Active

CCCC/C=C/Cc1cc(=O)c2ccccc2[nH]1
Activity [1]: inactive
Activity [2]: Active
Activity [3]: Active
